Measured values reported in PMC3914206.

Key:
Type in all cases: binding
Parameters in all cases: KINOMEscan: ABL1(F317L)-phosphorylated / KINOMEscan: ABL1(H396P)-nonphosphorylated / KINOMEscan: ABL1(H396P)-phosphorylated / KINOMEscan: ABL1(M351T)-phosphorylated / KINOMEscan: ABL1(T315I)-phosphorylated / KINOMEscan: ABL1-nonphosphorylated / KINOMEscan: ABL1-phosphorylated / KINOMEscan: ACVR2A / KINOMEscan: ACVR2B / KINOMEscan: ADCK3 / KINOMEscan: ADCK4 / KINOMEscan: AKT1 / KINOMEscan: AKT3 / KINOMEscan: ALK / KINOMEscan: ARK5 / KINOMEscan: AURKA / KINOMEscan: AURKC / KINOMEscan: BIKE / KINOMEscan: BMPR1A / KINOMEscan: BMPR1B / KINOMEscan: BMX / KINOMEscan: BRK / KINOMEscan: BRSK1 / KINOMEscan: BRSK2 / KINOMEscan: CAMK1 / KINOMEscan: CAMK1D / KINOMEscan: CAMK1G / KINOMEscan: CAMK2A / KINOMEscan: CAMK2B / KINOMEscan: AAK1 / KINOMEscan: CAMK2D / KINOMEscan: CAMK2G / KINOMEscan: ABL1(F317I)-nonphosphorylated / KINOMEscan: ABL1(F317I)-phosphorylated / KINOMEscan: ABL1(F317L)-nonphosphorylated: unit: % Ctrl
Conditions in all cases: Compound Concentration 10 µM
panel of 442 kinases [1] = biological target: T1, panel of 442 kinases (Homo sapiens, UniProt Q9H422)
T1 construct: purchased KINOMEscan
Text: (§1) We assessed the selectivity of members of this scaffold using the KINOMEscan methodology across a near comprehensive panel of 442 kinases [[18,27]].

panel of 442 kinases [2] = biological target: T2, panel of 442 kinases (Plasmodium falciparum, UniProt P61075)
T2 construct: purchased KINOMEscan
Text: as §1

panel of 442 kinases [3] = biological target: T3, panel of 442 kinases (Homo sapiens, UniProt Q2M2I8)
T3 construct: purchased KINOMEscan
Text: as §1

panel of 442 kinases [4] = biological target: T4, panel of 442 kinases (Homo sapiens, UniProt Q00535)
T4 construct: purchased KINOMEscan
Text: as §1

T2 sequence (P61075 whole entry): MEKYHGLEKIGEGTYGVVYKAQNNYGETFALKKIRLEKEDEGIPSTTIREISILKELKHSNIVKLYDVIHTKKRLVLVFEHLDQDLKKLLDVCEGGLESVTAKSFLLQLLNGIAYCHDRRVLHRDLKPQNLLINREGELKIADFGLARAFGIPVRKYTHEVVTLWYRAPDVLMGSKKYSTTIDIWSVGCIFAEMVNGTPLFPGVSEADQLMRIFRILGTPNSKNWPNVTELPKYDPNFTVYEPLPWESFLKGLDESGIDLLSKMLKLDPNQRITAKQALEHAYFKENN
T4 sequence (Q00535 whole entry): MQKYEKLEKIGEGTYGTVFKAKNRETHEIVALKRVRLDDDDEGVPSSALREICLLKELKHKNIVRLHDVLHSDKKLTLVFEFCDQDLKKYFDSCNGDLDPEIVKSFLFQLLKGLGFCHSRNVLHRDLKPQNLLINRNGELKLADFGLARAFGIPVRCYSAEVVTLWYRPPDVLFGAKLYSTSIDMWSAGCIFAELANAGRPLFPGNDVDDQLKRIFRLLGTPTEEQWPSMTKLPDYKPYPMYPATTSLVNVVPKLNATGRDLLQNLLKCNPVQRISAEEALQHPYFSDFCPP
T3 sequence (Q2M2I8 whole entry): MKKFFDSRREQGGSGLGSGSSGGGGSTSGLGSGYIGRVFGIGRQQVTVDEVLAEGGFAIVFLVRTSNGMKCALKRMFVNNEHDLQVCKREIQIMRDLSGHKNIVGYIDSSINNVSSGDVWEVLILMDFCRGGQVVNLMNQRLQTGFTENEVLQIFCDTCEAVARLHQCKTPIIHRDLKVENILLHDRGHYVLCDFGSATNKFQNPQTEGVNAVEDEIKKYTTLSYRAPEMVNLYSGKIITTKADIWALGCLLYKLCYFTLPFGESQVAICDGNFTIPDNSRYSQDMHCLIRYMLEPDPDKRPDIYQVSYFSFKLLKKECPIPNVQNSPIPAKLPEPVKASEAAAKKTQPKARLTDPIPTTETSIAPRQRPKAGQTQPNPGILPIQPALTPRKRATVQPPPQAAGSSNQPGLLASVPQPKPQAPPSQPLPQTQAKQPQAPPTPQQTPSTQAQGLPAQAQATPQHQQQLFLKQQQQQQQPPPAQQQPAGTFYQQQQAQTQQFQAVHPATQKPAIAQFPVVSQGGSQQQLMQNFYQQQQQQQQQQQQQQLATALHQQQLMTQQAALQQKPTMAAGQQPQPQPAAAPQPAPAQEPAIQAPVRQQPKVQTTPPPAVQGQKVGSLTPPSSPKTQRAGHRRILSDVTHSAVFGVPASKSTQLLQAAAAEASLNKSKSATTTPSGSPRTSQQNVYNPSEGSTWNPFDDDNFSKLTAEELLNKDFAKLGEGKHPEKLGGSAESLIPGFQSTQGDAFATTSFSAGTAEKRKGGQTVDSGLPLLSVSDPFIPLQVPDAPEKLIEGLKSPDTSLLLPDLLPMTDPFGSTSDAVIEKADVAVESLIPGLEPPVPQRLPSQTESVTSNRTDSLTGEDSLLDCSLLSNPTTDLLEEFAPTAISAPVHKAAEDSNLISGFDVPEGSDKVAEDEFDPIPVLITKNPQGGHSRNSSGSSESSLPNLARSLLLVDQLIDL
T1 sequence (Q9H422 whole entry): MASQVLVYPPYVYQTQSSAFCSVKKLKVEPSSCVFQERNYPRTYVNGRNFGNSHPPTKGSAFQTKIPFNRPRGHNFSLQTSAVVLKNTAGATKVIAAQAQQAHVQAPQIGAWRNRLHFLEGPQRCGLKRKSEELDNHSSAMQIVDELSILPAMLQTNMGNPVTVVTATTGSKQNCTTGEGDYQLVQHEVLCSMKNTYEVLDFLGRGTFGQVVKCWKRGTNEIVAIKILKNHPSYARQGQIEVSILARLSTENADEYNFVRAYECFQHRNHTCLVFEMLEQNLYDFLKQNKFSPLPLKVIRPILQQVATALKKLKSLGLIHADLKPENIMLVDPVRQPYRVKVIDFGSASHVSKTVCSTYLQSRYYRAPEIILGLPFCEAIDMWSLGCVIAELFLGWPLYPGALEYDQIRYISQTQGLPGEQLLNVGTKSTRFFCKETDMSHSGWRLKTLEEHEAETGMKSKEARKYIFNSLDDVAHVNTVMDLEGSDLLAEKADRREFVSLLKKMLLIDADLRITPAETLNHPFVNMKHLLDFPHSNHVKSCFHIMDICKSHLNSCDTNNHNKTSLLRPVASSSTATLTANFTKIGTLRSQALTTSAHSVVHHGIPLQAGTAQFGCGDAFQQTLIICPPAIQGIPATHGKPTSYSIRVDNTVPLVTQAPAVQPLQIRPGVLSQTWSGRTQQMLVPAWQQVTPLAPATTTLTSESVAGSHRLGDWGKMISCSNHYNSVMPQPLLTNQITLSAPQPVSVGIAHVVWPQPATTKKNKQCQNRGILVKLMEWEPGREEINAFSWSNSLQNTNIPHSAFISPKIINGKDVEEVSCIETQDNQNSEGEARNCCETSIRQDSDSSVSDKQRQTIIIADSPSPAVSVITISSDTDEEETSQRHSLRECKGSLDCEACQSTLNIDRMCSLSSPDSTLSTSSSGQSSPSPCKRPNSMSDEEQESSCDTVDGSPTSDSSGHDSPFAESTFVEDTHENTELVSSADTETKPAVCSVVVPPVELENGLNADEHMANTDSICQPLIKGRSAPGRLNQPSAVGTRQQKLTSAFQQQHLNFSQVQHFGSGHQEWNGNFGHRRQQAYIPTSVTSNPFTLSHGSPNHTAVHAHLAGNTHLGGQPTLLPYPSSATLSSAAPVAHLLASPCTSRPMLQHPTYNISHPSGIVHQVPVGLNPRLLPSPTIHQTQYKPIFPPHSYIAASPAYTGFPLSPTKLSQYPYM

Structure (SMILES)	KINOMEscan: HIPK3 (panel of 442 kinases [1])	KINOMEscan: PFPK5(P.falciparum) (panel of 442 kinases [2])	KINOMEscan: AAK1 (panel of 442 kinases [3])	KINOMEscan: CDK5 (panel of 442 kinases [4])
COc1cc(C(=O)N2CCC(N3CCN(C)CC3)CC2)ccc1Nc1ncc2c(n1)N1CCc3cccc(c31)C(=O)N2C [Compound 24]	48	92	–	–
CCOc1cc(C(=O)N2CCC(N3CCN(C)CC3)CC2)ccc1Nc1ncc2c(n1)N(C1CCCC1)c1ccccc1C(=O)N2C [Compound 26]	92	100	100	100
COc1cc(C(=O)N2CCC(N3CCN(C)CC3)CC2)ccc1Nc1ncc2c(n1)N(C1CCCC1)c1ccccc1C(=O)N2C [Compound 25, 11-cyclopentyl-2-((2-methoxy-4-(4-(4-methylpiperazin-1-yl)piperidine-1-carbonyl)phenyl)amino)-5-methyl-5H-benzo[e]pyrimido[5,4-b][1,4]diazepin-6(11H)-one]	100	85	89	94
COc1cc(C(=O)N2CCC(N3CCN(C)CC3)CC2)ccc1Nc1ncc2c(n1)N(C)c1ccccc1C(=O)N2C [15 (LRRK2-IN-1)]	89	100	84	81
